# Literature values, collected in patent EP1844782A1 (priority 2006, dated 2007).
# Test system: EAE
# Conditions: EAE (Craner et al., 2005)
compound,measurement,value
O=C1NC(=O)C(c2ccccc2)(c2ccccc2)N1 [phenytoin],ameliorates the inflammatory cell infiltrate in EAE,75%
